Patent publication US20210269434A1, “TRICYCLIC COMPOUNDS AS INHIBITORS OF KRAS” (Incyte Corporation, priority 2020, published 2021)

Legend:
[1] = tested on: MIA PaCa-2 (KRAS G12C) cells; test: Cellular pERK HTRF assay (KRAS_G12C pERK); format: cell-based, human; details: Homo sapiens, MIA PaCa-2, 4 hours incubation, read-out: G12C_pERK
Method: Example C: Cellular pERK HTRF Assay
MIA PaCa-2 (KRAS G12C; ATCC® CRL-1420), A427 (KRAS G12D; ATCC® HTB53), HPAF-II (KRAS G12D; ATCC® CRL-1997) and NCI-H838 (KRAS WT; ATCC® CRL-5844) cells are purchased from ATCC and maintained in RPMI 1640 media supplemented with 10% FBS (Gibco/Life Technologies). The cells are plated at 5000 cells per well (8 uL) into Greiner 384-well low volume, flat-bottom, tissue culture treated white plates and incubated overnight at 37° C., 5% CO2. The next morning, test compound stock solutions are diluted in media at 3× the final concentration, and 4 uL are added to the cells. The plate is mixed by gentle rotation for 30 seconds (250 rpm) at room temperature. The cells are incubated with the KRAS G12C and G12D compounds for 4 hours or 2 hours respectively at 37° C., 5% CO2.
4 uL of 4× lysis buffer with blocking reagent (1:25) (Cisbio) are added to each well and plates are rotated gently (300 rpm) for 30 minutes at room temperature. 4 uL per well of Cisbio anti Phospho-ERK 1/2 d2 is mixed with anti Phospho-ERK 1/2 Cryptate (1:1) are added to each well, mixed by rotation and incubated overnight in the dark at room temperature. Plates are read on the Pherastar plate reader at 665 nm and 620 nm wavelengths. IC50 determination is performed by fitting the curve of inhibitor percent inhibition versus the log of the inhibitor concentration using the GraphPad Prism 7 software.

KRAS G12C = KRAS G12C (Homo sapiens, UniProt P01116, G12C); test: GDP-GTP exchange assay (KRAS_G12C exchange); format: biochemical; details: bodipy-GDP loaded KRAS G12C 2.5 nM, SOS1 150 nM, GppNHp; 2 hours pre-incubation, 2 hours reaction; read-out: G12C_exchange
KRAS G12C, sequence (P01116 1-188 isoform P01116-2 G12C): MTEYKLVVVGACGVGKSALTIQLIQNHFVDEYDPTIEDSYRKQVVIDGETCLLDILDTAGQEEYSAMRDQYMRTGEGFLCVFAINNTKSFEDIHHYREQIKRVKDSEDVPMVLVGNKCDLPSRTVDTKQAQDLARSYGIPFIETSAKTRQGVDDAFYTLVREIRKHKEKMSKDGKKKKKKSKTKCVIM
Method: Example A. GDP-GTP Exchange Assay
The inhibitor potency of the exemplified compounds was determined in a fluorescence based guanine nucleotide exchange assay, which measures the exchange of bodipy-GDP (fluorescently labeled GDP) for GppNHp (Non-hydrolyzable GTP analog) to generate the active state of KRAS in the presence of SOS1 (guanine nucleotide exchange factor). Inhibitors were serially diluted in DMSO and a volume of 0.1 μL was transferred to the wells of a black low volume 384-well plate. 5 μL/well volume of bodipy-loaded KRAS G12C diluted to 5 nM in assay buffer (25 mM Hepes pH 7.5, 50 mM NaCl, 10 mM MgCl2 and 0.01% Brij-35) was added to the plate and pre-incubated with inhibitor for 2 hours at ambient temperature. Appropriate controls (enzyme with no inhibitor or with a G12C inhibitor (AMG-510)) were included on the plate. The exchange was initiated by the addition of a 5 μL/well volume containing 1 mM GppNHp and 300 nM SOS1 in assay buffer. The 10 μL/well reaction concentration of the bodipy-loaded KRAS G12C, GppNHp, and SOS1 were 2.5 nM, 500 uM, and 150 nM, respectively. The reaction plates were incubated at ambient temperature for 2 hours, a time estimated for complete GDP-GTP exchange in the absence of inhibitor. For the KRAS G12D and G12V mutants, similar guanine nucleotide exchange assays were used with 2.5 nM as final concentration for the bodipy loaded KRAS proteins and with 4 hours and 3 hours incubation after adding GppNHp-SOS1 mixture for G12D and G12V respectively. A cyclic peptide described to selectively bind G12D mutant (Sakamoto et al., BBRC 484.3 (2017), 605-611) or internal compounds with confirmed binding were used as positive controls in the assay plates. Fluorescence intensities were measured on a PheraStar plate reader instrument (BMG Labtech) with excitation at 485 nm and emission at 520 nm.
Either GraphPad prism or XLfit was used to analyze the data. The IC50 values were derived by fitting the data to a four parameter logistic equation producing a sigmoidal dose-response curve with a variable Hill coefficient. Prism equation: Y=Bottom+(Top−Bottom)/(1+10^((Log lC50−X)*Hill slope)); XLfit equation: Y=(A+((B−A)/(1+((X/C)^D)))) where X is the logarithm of inhibitor concentration and Y is the response.

Row | IC50 [1] | IC50 (KRAS G12C) | Compound
1 | ≤ 100 nM | ≤ 100 nM | C=CC(=O)N1CC[C@H](n2nnc3c(N4CC(N(C)C)C4)nc4c(F)c(-c5ccc(F)c(C)c5C)c(Cl)cc4c32)C[C@H]1CC#N [Example 116, 2-((2S,4S)-1-acryloyl-4-(8-chloro-4-(3-(dimethylamino)azetidin-1-yl)-6-fluoro-7-(4-fluoro-2,3-dimethylphenyl)-1H-[1,2,3]triazolo[4,5-c]quinolin-1-yl)piperidin-2-yl)acetonitrile]
2 | ≤ 100 nM | ≤ 100 nM | Cc1nccn1-c1nc2c(F)c(-c3ccccc3)c(Cl)cc2c2c1ncn2[C@H]1CCN(C(=O)/C=C/CF)[C@H](CC#N)C1 [Example 152, 2-((2S,4S)-4-(8-chloro-6-fluoro-4-(2-methyl-1H-imidazol-1-yl)-7-phenyl-1H-imidazo[4,5-c]quinolin-1-yl)-1-((E)-4-fluorobut-2-enoyl)piperidin-2-yl)acetonitrile]
3 | ≤ 100 nM | ≤ 100 nM | C=CC(=O)N1CC[C@H](n2cnc3c(N4CC(N(C)C)C4)nc4c(F)c(-c5ccccc5F)c(Cl)cc4c32)C[C@H]1CC#N [Example 56, 2-((2S,4S)-1-acryloyl-4-(8-chloro-4-(3-(dimethylamino)azetidin-1-yl)-6-fluoro-7-(2-fluorophenyl)-1H-imidazo[4,5-c]quinolin-1-yl)piperidin-2-yl)acetonitrile]
4 | ≤ 100 nM | ≤ 100 nM | C=CC(=O)N1CC[C@H](n2nnc3c(N4CC(N(C)C)C4)nc4c(F)c(-c5cccc(C)c5C)c(Cl)cc4c32)C[C@H]1CC#N [Example 111, 2-((2S,4S)-1-acryloyl-4-(8-chloro-4-(3-(dimethylamino)azetidin-1-yl)-7-(2,3-dimethylphenyl)-6-fluoro-1H-[1,2,3]triazolo[4,5-c]quinolin-1-yl)piperidin-2-yl)acetonitrile]
5 | ≤ 100 nM | ≤ 100 nM | C=CC(=O)N1CC[C@H](n2cnc3c(N4CC(N(C)C)C4)nc4c(F)c(-c5cccc6cccc(Cl)c56)c(Cl)cc4c32)C[C@H]1CC#N [Example 265, 2-((2S,4S)-1-acryloyl-4-(8-chloro-7-(8-chloronaphthalen-1-yl)-4-(3-(dimethylamino)azetidin-1-yl)-6-fluoro-1H-imidazo[4,5-c]quinolin-1-yl)piperidin-2-yl)acetonitrile]
6 | ≤ 100 nM | ≤ 100 nM | Cc1cccc(-c2c(C)cc3c(nc(OC[C@@H]4CCCN4C)c4nnn([C@H]5CCN(C(=O)/C=C/C(F)F)[C@H](CC#N)C5)c43)c2F)c1C [Example 141, 2-((2S,4S)-1-((E)-4,4-difluorobut-2-enoyl)-4-(7-(2,3-dimethylphenyl)-6-fluoro-8-methyl-4-(((S)-1-methylpyrrolidin-2-yl)methoxy)-1H-[1,2,3]triazolo[4,5-c]quinolin-1-yl)piperidin-2-yl)acetonitrile]
7 | ≤ 100 nM | ≤ 100 nM | C=CC(=O)N1CC[C@H](n2nnc3c(N4CC(N(C)C)C4)nc4c(F)c(-c5ccccc5)c(Cl)cc4c32)C[C@H]1CC#N [Example 154, 2-((2S,4S)-1-acryloyl-4-(8-chloro-4-(3-(dimethylamino)azetidin-1-yl)-6-fluoro-7-phenyl-1H-[1,2,3]triazolo[4,5-c]quinolin-1-yl)piperidin-2-yl)acetonitrile]
8 | ≤ 100 nM | ≤ 100 nM | C=CC(=O)N1CC[C@H](n2nnc3c(-n4ccnc4C)nc4c(F)c(-c5ccccc5)c(C)cc4c32)C[C@H]1CC#N [Example 156, 2-((2S,4S)-1-acryloyl-4-(6-fluoro-8-methyl-4-(2-methyl-1H-imidazol-1-yl)-7-phenyl-1H-[1,2,3]triazolo[4,5-c]quinolin-1-yl)piperidin-2-yl)acetonitrile]

The next lines start with the compound.

Row | Compound | IC50 [1] | IC50 (KRAS G12C)
9 | CC#CC(=O)N1CC[C@H](n2cnc3c(N4CC(N(C)C)C4)nc4c(F)c(-c5cccc(C)c5C(F)(F)F)c(Cl)cc4c32)C[C@H]1CC#N [Example 263, 2-((2S,4S)-1-(but-2-ynoyl)-4-(8-chloro-4-(3-(dimethylamino)azetidin-1-yl)-6-fluoro-7-(3-methyl-2-(trifluoromethyl)phenyl)-1H-imidazo[4,5-c]quinolin-1-yl)piperidin-2-yl)acetonitrile] | ≤ 100 nM | ≤ 100 nM
10 | C=CC(=O)N1CC[C@H](n2cnc3c(N4CC(N(C)C)C4)nc4c(F)c(-c5cc(O)cc(C)c5C)c(Cl)cc4c32)C[C@H]1CC#N (single isomer, unassigned) [Example 52a] | ≤ 100 nM | ≤ 100 nM
11 | C=CC(=O)N1CC[C@H](n2nnc3c(O[C@@H](C)CN(C)C)nc4c(F)c(-c5ccc(F)cc5)c(C)cc4c32)C[C@H]1CC#N [Example 132, 2-((2S,4S)-1-acryloyl-4-(4-(((S)-1-(dimethylamino)propan-2-yl)oxy)-6-fluoro-7-(4-fluorophenyl)-8-methyl-1H-[1,2,3]triazolo[4,5-c]quinolin-1-yl)piperidin-2-yl)acetonitrile] | ≤ 100 nM | ≤ 100 nM
12 | C=CC(=O)N1CC[C@H](n2nnc3c(-c4cccnc4C)nc4c(F)c(-c5cccc(Cl)c5C)c(Cl)cc4c32)C[C@H]1CC#N [Example 174, 2-((2S,4S)-1-acryloyl-4-(8-chloro-7-(3-chloro-2-methylphenyl)-6-fluoro-4-(2-methylpyridin-3-yl)-1H-[1,2,3]triazolo[4,5-c]quinolin-1-yl)piperidin-2-yl)acetonitrile] | ≤ 100 nM | ≤ 100 nM
13 | COC/C=C/C(=O)N1CC[C@H](n2cnc3c(OC[C@@H]4CCCN4C)nc4c(F)c(-c5c(C)c(Cl)cc6[nH]ncc56)c(Cl)cc4c32)C[C@H]1CC#N [Example 184a, 2-((2S,4S)-4-(8-chloro-7-(6-chloro-5-methyl-1H-indazol-4-yl)-6-fluoro-4-(((S)-1-methylpyrrolidin-2-yl)methoxy)-1H-imidazo[4,5-c]quinolin-1-yl)-1-((E)-4-methoxybut-2-enoyl)piperidin-2-yl)acetonitrile] | ≤ 100 nM | ≤ 100 nM
14 | C=CC(=O)N1CC[C@H](n2cnc3c(N4CC(N(C)C)C4)nc4c(F)c(-c5cccc(C)c5C(F)(F)F)c(Cl)cc4c32)C[C@H]1CC#N [Example 264, 2-((2S,4S)-1-acryloyl-4-(8-chloro-4-(3-(dimethylamino)azetidin-1-yl)-6-fluoro-7-(3-methyl-2-(trifluoromethyl)phenyl)-1H-imidazo[4,5-c]quinolin-1-yl)piperidin-2-yl)acetonitrile] | ≤ 100 nM | ≤ 100 nM
15 | C=C(F)C(=O)N1CC[C@H](n2nnc3c(N4CC(N(C)C)C4)nc4c(F)c(-c5c(C)c(Cl)cc6[nH]ncc56)c(Cl)cc4c32)C[C@H]1CC#N [Example 189, 2-((2S,4S)-4-(8-chloro-7-(6-chloro-5-methyl-1H-indazol-4-yl)-4-(3-(dimethylamino)azetidin-1-yl)-6-fluoro-1H-[1,2,3]triazolo[4,5-c]quinolin-1-yl)-1-(2-fluoroacryloyl)piperidin-2-yl)acetonitrile] | ≤ 100 nM | ≤ 100 nM
16 | CN(C)C/C=C/C(=O)N1CCC(n2nnc3c(N4CC(C)(N(C)C)C4)nc4c(F)c(-c5cccc6cccc(Cl)c56)c(Cl)cc4c32)C[C@H]1CC#N (stereo partly drawn) [Example 217, 2-((2S)-4-(8-chloro-7-(8-chloronaphthalen-1-yl)-4-(3-(dimethylamino)-3-methylazetidin-1-yl)-6-fluoro-1H-[1,2,3]triazolo[4,5-c]quinolin-1-yl)-1-((E)-4-(dimethylamino)but-2-enoyl)piperidin-2-yl)acetonitrile] | ≤ 100 nM | ≤ 100 nM
